# Results reported in ChEMBL document CHEMBL5143636, “Design, synthesis and structure-activity relationship studies of pyrido[2,3-d]pyrimidin-7-ones as potent Janus Kinase 3 (JAK3) covalent inhibitors” (Bioorg Med Chem Lett, 2022).
# Activity calls are given as the source filed them. No cut-off for these calls is given here.
# Tests used:
# [1] = target: T1, Tyrosine-protein kinase JAK3 (Homo sapiens, UniProt P52333)
# T1 sequence (P52333 whole entry): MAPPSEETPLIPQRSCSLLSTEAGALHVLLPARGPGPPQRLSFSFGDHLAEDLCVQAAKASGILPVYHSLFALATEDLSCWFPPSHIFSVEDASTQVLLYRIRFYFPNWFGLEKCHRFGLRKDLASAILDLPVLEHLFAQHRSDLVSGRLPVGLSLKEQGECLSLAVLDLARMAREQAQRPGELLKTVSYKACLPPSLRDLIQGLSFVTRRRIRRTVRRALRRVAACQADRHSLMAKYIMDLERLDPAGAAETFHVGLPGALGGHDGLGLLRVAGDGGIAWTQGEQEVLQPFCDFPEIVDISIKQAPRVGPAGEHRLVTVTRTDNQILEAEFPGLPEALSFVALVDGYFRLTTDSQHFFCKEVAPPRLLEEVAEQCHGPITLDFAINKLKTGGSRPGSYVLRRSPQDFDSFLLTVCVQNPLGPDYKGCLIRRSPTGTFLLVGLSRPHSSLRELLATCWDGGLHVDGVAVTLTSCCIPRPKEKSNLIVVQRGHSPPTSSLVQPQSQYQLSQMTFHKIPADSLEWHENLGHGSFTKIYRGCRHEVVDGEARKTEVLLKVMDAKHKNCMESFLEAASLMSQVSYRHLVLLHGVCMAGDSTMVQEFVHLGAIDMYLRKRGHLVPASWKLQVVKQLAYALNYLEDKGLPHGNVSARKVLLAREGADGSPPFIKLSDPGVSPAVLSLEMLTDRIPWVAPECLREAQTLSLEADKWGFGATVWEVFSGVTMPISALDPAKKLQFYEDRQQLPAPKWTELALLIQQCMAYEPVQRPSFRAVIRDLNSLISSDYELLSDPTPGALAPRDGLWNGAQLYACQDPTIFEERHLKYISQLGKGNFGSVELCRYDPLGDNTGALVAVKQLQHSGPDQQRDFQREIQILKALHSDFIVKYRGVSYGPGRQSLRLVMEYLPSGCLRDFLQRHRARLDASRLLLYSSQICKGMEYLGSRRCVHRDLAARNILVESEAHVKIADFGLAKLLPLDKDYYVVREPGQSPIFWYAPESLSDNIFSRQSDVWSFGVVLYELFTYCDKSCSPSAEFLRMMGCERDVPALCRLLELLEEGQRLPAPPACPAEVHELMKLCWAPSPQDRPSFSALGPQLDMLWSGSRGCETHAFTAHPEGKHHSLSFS
# Description: Covalent inhibition of recombinant recombinant human GST-tagged JAK3(781 to 1124 residues) expressed in baculovirus expression system incubated for 1 hr in the presence of ATP by FRET based Z'-LYTE assay
# U-937 [2] = assay: Antiproliferative activity against human U-937 cells harbouring JAK3 M511 mutation assessed as reduction in cell viability incubated for 72 hrs by CCK-8 assay; format: functional, cell-based; details: U-937, 72 h
# [3] = target: T1, Tyrosine-protein kinase JAK3; assay: Inhibition of JAK3 (unknown origin) incubated for 1 hr in the presence of ATP by FRET based Z'-LYTE assay
# Daudi = assay: Antiproliferative activity against human Daudi cells assessed as reduction in cell viability incubated for 72 hrs by CCK-8 assay; format: functional, cell-based
# [4] = target: Epidermal growth factor receptor (Homo sapiens, UniProt P00533); assay: Inhibition of wild type EGFR (unknown origin) incubated for 1 hr in the presence of ATP by FRET based Z'-LYTE assay
# Sequence of Epidermal growth factor receptor (Homo sapiens, UniProt P00533) (P00533 whole entry, the tested form may be a part): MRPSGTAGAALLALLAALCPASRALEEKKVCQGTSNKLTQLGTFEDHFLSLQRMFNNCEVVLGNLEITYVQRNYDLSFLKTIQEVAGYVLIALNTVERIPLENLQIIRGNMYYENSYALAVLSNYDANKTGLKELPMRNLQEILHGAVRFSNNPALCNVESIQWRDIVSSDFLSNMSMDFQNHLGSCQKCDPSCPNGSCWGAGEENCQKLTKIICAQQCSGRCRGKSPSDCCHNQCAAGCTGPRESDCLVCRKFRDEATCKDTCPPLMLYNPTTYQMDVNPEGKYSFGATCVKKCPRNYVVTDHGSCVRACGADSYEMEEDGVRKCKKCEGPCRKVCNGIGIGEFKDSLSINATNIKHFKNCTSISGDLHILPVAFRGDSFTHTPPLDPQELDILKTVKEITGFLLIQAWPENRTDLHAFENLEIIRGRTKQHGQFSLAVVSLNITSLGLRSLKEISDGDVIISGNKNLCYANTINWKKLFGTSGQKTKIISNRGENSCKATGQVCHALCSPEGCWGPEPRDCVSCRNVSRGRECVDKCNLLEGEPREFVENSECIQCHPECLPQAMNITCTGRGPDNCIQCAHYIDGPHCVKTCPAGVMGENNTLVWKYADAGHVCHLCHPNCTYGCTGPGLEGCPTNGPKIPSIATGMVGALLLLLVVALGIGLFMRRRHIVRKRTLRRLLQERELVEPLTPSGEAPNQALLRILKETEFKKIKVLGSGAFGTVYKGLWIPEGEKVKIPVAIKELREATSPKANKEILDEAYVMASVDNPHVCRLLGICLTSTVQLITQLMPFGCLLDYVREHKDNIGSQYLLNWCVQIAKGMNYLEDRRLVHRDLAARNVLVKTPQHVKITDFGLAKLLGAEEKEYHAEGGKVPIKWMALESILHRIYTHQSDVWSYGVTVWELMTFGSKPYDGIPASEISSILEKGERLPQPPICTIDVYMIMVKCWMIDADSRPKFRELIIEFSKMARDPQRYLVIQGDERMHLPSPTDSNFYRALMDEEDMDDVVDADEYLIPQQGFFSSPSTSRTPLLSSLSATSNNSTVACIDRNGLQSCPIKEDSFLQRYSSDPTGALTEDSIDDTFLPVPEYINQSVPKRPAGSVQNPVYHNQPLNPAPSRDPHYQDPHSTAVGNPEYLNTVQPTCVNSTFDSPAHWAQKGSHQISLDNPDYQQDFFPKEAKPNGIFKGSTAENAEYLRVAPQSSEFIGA
# [5] = Selectivity ratio of IC50 for inhibition of BTK (unknown origin) to IC50 for covalent inhibition of recombinant human GST-tagged JAK3 (781 to 1124 residues) expressed in baculovirus expression system
# [6] = target: T2, Tyrosine-protein kinase JAK3 (Homo sapiens) (UniProt P52333); assay: Inhibition of JAK3 phosphorylation in human U-937 cells at 200 nM preincubated for 6 hrs followed by compound washout and measured upto 24 hrs by Western blotting analysis; format: cell-based
# T2 sequence (whole entry): T1 sequence (P52333 whole entry)
# MOLT-4 = assay: Antiproliferative activity against human MOLT-4 cells assessed as reduction in cell viability incubated for 72 hrs by CCK-8 assay; format: functional, cell-based; details: MOLT-4, 72 h
# [7] = Selectivity ratio of IC50 for inhibition of wild type EGFR (unknown origin) to IC50 for covalent inhibition of recombinant human GST-tagged JAK3 (781 to 1124 residues) expressed in baculovirus expression system
# [8] = target: T2, Tyrosine-protein kinase JAK3 (Homo sapiens); assay: Inhibition of JAK3 phosphorylation in human U-937 cells measured after 12 hrs by Western blotting analysis; format: cell-based; details: dose 12.5-200 nM, DDE = dose-dependent effect
# U-937 [9] = assay: Effect on STAT5 protein level in human U-937 cells at 12.5 to 200 nM measured after 12 hrs by Western blotting analysis; format: functional, cell-based; details: dose 12.5-200 nM
# [10] = target: Non-receptor tyrosine-protein kinase TYK2 (Homo sapiens, UniProt P29597); assay: Inhibition of TYK2 (unknown origin) incubated for 1 hr in the presence of ATP by FRET based Z'-LYTE assay
# Sequence of Non-receptor tyrosine-protein kinase TYK2 (P29597 whole entry): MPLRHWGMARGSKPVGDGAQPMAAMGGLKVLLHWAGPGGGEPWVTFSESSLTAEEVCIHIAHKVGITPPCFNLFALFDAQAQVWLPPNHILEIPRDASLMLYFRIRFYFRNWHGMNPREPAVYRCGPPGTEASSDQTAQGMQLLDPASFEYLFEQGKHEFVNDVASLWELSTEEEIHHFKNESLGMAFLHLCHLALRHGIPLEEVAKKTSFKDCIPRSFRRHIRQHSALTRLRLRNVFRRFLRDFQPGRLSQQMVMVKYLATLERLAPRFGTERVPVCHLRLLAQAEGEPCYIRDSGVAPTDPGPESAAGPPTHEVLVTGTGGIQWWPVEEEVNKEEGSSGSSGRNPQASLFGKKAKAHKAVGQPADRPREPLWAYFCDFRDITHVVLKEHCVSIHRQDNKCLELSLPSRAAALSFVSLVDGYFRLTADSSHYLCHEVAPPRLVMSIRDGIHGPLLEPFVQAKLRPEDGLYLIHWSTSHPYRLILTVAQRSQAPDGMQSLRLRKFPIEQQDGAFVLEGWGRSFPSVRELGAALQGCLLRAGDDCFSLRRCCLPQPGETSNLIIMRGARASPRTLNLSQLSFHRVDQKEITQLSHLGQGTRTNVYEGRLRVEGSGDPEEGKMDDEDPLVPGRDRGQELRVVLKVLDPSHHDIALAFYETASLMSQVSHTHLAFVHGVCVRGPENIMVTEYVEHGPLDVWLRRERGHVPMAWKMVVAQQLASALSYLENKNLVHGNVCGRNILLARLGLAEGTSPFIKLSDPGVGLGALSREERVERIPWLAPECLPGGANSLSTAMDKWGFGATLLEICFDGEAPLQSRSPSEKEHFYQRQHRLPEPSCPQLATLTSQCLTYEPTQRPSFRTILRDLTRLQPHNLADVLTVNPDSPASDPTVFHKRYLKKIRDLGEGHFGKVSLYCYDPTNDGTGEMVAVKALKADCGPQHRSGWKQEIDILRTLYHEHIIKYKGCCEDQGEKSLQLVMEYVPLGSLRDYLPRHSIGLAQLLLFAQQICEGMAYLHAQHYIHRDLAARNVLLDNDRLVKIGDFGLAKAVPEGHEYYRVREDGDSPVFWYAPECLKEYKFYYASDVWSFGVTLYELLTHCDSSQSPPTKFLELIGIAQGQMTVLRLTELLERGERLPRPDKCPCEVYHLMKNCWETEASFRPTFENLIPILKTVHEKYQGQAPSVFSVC
# COLO 205 = assay: Antiproliferative activity against human COLO 205 cells assessed as reduction in cell viability incubated for 72 hrs by CCK-8 assay; format: functional, cell-based; details: COLO 205, 72 h
# [11] = target: T3, Signal transducer and activator of transcription 5A (Homo sapiens) (UniProt P42229); assay: Inhibition STAT5 phosphorylation in human U-937 cells measured after 12 hrs by Western blotting analysis; format: cell-based; details: dose 12.5-200 nM, DDE = dose-dependent effect
# T3 sequence (whole entry): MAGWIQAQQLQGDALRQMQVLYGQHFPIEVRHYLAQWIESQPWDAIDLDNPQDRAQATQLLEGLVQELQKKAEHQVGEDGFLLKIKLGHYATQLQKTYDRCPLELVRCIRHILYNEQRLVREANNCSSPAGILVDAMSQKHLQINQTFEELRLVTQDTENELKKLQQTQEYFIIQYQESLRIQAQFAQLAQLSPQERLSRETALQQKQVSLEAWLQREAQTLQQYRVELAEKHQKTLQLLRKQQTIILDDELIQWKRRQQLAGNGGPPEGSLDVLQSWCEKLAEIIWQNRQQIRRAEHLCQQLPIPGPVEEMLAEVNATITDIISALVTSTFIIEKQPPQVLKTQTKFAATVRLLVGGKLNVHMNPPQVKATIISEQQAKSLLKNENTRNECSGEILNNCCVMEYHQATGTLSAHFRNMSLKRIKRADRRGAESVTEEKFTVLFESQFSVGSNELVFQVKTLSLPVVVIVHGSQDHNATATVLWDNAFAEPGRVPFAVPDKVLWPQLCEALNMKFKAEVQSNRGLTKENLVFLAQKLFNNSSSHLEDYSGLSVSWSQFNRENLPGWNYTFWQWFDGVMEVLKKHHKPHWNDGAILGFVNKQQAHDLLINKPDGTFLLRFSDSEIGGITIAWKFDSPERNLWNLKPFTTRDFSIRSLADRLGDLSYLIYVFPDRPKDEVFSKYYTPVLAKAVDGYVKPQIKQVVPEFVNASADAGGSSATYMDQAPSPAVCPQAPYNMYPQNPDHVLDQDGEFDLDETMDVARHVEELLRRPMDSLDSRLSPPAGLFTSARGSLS
# [12] = target: Tyrosine-protein kinase JAK2 (Homo sapiens, UniProt O60674); assay: Inhibition of JAK2 (unknown origin) incubated for 1 hr in the presence of ATP by FRET based Z'-LYTE assay
# [13] = Selectivity ratio of IC50 for inhibition of EGFR T790M mutant (unknown origin) to IC50 for covalent inhibition of recombinant human GST-tagged JAK3 (781 to 1124 residues) expressed in baculovirus expression system
# [14] = target: T3, Signal transducer and activator of transcription 5A (Homo sapiens); assay: Inhibition of STAT5 phosphorylation in human U-937 cells at 200 nM preincubated for 6 hrs followed by compound washout and measured upto 24 hrs by Western blotting analysis; format: cell-based
# U-937 [15] = assay: Effect on JAK3 protein level in human U-937 cells at 12.5 to 200 nM measured after 12 hrs by Western blotting analysis; format: functional, cell-based; details: dose 12.5-200 nM
# [16] = target: Tyrosine-protein kinase BTK (Homo sapiens, UniProt Q06187); assay: Inhibition of BTK (unknown origin) incubated for 1 hr in the presence of ATP by FRET based Z'-LYTE assay
# Sequence of Tyrosine-protein kinase BTK (Q06187 whole entry): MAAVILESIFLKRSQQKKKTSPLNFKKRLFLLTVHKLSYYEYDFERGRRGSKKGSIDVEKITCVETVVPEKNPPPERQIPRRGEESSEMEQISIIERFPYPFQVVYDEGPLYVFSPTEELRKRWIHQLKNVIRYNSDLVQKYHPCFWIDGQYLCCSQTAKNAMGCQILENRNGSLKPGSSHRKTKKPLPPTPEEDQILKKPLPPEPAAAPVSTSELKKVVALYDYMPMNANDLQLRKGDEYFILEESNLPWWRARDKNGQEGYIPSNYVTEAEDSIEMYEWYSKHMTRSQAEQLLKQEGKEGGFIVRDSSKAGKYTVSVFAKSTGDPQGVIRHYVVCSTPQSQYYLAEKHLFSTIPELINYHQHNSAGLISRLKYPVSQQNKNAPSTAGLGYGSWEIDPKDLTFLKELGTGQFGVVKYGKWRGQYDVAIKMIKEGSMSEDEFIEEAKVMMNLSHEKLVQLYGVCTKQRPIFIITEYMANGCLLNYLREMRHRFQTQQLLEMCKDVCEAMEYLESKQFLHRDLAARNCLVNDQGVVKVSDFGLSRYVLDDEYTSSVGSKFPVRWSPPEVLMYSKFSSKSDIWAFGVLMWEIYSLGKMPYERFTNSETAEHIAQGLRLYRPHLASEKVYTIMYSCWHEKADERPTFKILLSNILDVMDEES
# [17] = target: Epidermal growth factor receptor (Homo sapiens, UniProt P00533, T790M); assay: Inhibition of EGFR T790M mutant (unknown origin) incubated for 1 hr in the presence of ATP by FRET based Z'-LYTE assay
# [18] = target: Tyrosine-protein kinase JAK1 (Homo sapiens, UniProt P23458); assay: Inhibition of JAK1 (unknown origin) incubated for 1 hr in the presence of ATP by FRET based Z'-LYTE assay
# Sequence of Tyrosine-protein kinase JAK1 (P23458 whole entry): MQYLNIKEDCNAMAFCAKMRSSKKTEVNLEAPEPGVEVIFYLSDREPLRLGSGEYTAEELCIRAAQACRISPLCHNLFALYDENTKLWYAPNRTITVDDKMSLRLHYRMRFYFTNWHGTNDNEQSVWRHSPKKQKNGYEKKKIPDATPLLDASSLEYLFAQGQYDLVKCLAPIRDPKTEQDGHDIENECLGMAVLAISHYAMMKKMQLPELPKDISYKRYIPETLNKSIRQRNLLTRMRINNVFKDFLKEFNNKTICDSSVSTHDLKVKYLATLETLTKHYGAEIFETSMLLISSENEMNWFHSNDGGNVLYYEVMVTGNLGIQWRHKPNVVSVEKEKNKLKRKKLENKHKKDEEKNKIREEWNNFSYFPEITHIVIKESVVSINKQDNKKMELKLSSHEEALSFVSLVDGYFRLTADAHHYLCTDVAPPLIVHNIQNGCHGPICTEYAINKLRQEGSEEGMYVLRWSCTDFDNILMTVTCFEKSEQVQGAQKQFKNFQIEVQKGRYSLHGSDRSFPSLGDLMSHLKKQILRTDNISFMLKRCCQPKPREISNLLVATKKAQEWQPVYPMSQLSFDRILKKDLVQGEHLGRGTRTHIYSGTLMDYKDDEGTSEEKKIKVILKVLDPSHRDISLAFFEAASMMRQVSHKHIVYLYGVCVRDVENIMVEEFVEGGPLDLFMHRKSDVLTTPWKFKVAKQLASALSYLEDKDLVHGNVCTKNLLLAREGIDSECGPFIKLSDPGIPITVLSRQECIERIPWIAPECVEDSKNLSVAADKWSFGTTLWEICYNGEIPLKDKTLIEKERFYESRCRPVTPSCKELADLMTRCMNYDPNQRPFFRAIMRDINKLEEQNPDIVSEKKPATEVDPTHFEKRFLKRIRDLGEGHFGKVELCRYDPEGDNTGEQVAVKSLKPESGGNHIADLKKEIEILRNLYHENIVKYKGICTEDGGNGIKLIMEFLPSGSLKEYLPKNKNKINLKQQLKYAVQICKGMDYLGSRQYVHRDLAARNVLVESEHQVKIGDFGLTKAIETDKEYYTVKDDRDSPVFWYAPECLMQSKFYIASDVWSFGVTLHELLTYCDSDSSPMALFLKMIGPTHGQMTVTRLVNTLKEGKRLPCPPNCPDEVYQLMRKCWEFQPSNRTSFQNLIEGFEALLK
# MDA-MB-231 = assay: Antiproliferative activity against human MDA-MB-231 cells assessed as reduction in cell viability incubated for 72 hrs by CCK-8 assay; format: functional, cell-based; details: MDA-MB-231, 72 h
# Jurkat = assay: Antiproliferative activity against human Jurkat cells assessed as reduction in cell viability incubated for 72 hrs by CCK-8 assay; format: functional, cell-based
# OCI-Ly3 = assay: Antiproliferative activity against human OCILY3 cells assessed as reduction in cell viability incubated for 72 hrs by CCK-8 assay; format: functional, cell-based; details: OCI-Ly3, 72 h
# HCT-116 = assay: Antiproliferative activity against human HCT-116 cells assessed as reduction in cell viability incubated for 72 hrs by CCK-8 assay; format: functional, cell-based; details: HCT-116, 72 h
# NCI-H1299 = assay: Antiproliferative activity against human NCI-H1299 cells assessed as reduction in cell viability incubated for 72 hrs by CCK-8 assay; format: functional, cell-based; details: NCI-H1299, 72 h
structure (smiles),measurement,setting,value
C=CC(=O)Nc1cccc(Cn2c(=O)cc(CC)c3cnc(Nc4ccc(N5CCN(C)CC5)cc4OC)nc32)c1,IC50,[1],20 nM
C=CC(=O)Nc1cccc(Cn2c(=O)ccc3cnc(Nc4cnn(CCOC)c4)nc32)c1,IC50,U-937 [2],430 nM
same,IC50,[1],3.3 nM
C=CC(=O)Nc1cccc(Cn2c(=O)ccc3cnc(Nc4ccc(N5CCN(C)CC5)cc4OC)nc32)c1,IC50,U-937 [2],470 nM
same,IC50,[1],1.6 nM
C=CC(=O)Nc1cccc(Cn2c(=O)cc(CCC)c3cnc(Nc4ccc(N5CCN(C)CC5)cc4OC)nc32)c1,IC50,[1],> 10000 nM
C=CC(=O)N1C[C@H](Nc2ncnc3[nH]ccc23)CC[C@@H]1C [RITLECITINIB],IC50,U-937 [2],40 nM
C=CC(=O)Nc1cccc(Cn2c(=O)ccc3cnc(Nc4ccc(C5CCN(C)CC5)cc4OC)nc32)c1,IC50,U-937 [2],520 nM
same,IC50,[1],4.1 nM
C/C=C/C(=O)Nc1cccc(Cn2c(=O)ccc3cnc(Nc4ccccc4OC)nc32)c1,IC50,[1],4800 nM
C=CC(=O)Nc1cccc(Cn2c(=O)cc(C)c3cnc(Nc4ccc(N5CCN(C)CC5)cc4OC)nc32)c1,IC50,[1],18.2 nM
C=CC(=O)Nc1cccc(-n2c(=O)cc(C)c3cnc(Nc4ccc(N5CCN(C)CC5)cc4OC)nc32)c1,IC50,[3],31.3 nM
C=CC(=O)Nc1cccc(Cn2c(=O)ccc3cnc(Nc4ccc(N5CCN(C)CC5)cc4OC(C)C)nc32)c1,IC50,[1],1300 nM
C=CC(=O)Nc1cccc(Cn2c(=O)ccc3cnc(Nc4cnn(C5CCN(C)CC5)c4)nc32)c1,IC50,U-937 [2],70 nM
same,IC50,[1],2 nM
C=CC(=O)Nc1ccccc1Cn1c(=O)ccc2cnc(Nc3ccccc3OC)nc21,IC50,[1],> 10000 nM
C=CC(=O)Nc1cccc(Cn2c(=O)cc(C3CC3)c3cnc(Nc4ccc(N5CCN(C)CC5)cc4OC)nc32)c1,IC50,[1],1450 nM
CCC(=O)Nc1cccc(Cn2c(=O)ccc3cnc(Nc4ccccc4OC)nc32)c1,IC50,[1],> 10000 nM
C=CC(=O)Nc1cccc(Cn2c(=O)ccc3cnc(Nc4cnn(C)c4)nc32)c1,IC50,U-937 [2],220 nM
same,IC50,[1],1.8 nM
C=CC(=O)Nc1cccc(Cn2c(=O)ccc3cnc(Nc4ccccc4OC)nc32)c1,IC50,U-937 [2],2020 nM
same,IC50,[1],3 nM
C=CC(=O)Nc1cccc(Cn2c(=O)ccc3cnc(Nc4cnn(CCO)c4)nc32)c1,IC50,U-937 [2],470 nM
same,IC50,[1],1.7 nM
C=CC(=O)Nc1ccc(Cn2c(=O)ccc3cnc(Nc4ccccc4OC)nc32)cc1,IC50,[1],72.1 nM
C=CC(=O)Nc1cccc(Cn2c(=O)ccc3cnc(Nc4ccc(N5CCN(C(C)=O)CC5)cc4OC)nc32)c1,IC50,U-937 [2],540 nM
same,IC50,[1],3.3 nM
C=CC(=O)Nc1cccc(Cn2c(=O)ccc3cnc(Nc4ccc(N5CCN(C)CC5)cc4OCC)nc32)c1,IC50,U-937 [2],1810 nM
same,IC50,[1],9.8 nM
C=CC(=O)Nc1cccc(Cn2c(=O)ccc3cnc(Nc4ccc(N5CCN(C)CC5)cc4)nc32)c1,IC50,Daudi,2070 nM
same,IC50,U-937 [2],50 nM
same,IC50,[4],261 nM
same,Ratio IC50,[5],8
same,inhibition,[6],Active
same,IC50,MOLT-4,2250 nM
same,Ratio IC50,[7],> 100
same,inhibition,[8],Dde
same,IC50,[1],2 nM
same,Activity,U-937 [9],Active
same,IC50,[10],8880 nM
same,IC50,COLO 205,3840 nM
same,inhibition,[11],Dde
same,IC50,[12],1130 nM
same,Ratio IC50,[13],> 100
same,inhibition,[14],Active
same,Activity,U-937 [15],Active
same,IC50,[16],15.6 nM
same,IC50,[17],216 nM
same,IC50,[18],2430 nM
same,IC50,MDA-MB-231,3030 nM
same,IC50,Jurkat,2280 nM
same,IC50,OCI-Ly3,1530 nM
same,IC50,HCT-116,3690 nM
same,IC50,NCI-H1299,4780 nM
C=CC(=O)Nc1cccc(Cn2c(=O)ccc3cnc(Nc4ccc(N(C)CCN(C)C)cc4OC)nc32)c1,IC50,U-937 [2],520 nM
same,IC50,[1],3.1 nM
